According to article PMC10256801, “A multicentric consortium study demonstrates that dimethylarginine dimethylaminohydrolase 2 is not a dimethylarginine dimethylaminohydrolase” (Nature Communications, 2023):

Target: T1, Dimethylarginine dimethylaminohydrolase 1 (DDAH1) (Homo sapiens, UniProt O94760)
T1 construct: N-terminal fusion protein with glutathione S-transferase (DDAH1-GST)
Experiment: MicroScale Thermophoresis (MST) with purified recombinant protein; hydrolysis to L-citrulline also measured
Conditions: read-out: Binding status Kd (μM) ± confidence values

T1 sequence (O94760 whole entry, the tested form may be a part): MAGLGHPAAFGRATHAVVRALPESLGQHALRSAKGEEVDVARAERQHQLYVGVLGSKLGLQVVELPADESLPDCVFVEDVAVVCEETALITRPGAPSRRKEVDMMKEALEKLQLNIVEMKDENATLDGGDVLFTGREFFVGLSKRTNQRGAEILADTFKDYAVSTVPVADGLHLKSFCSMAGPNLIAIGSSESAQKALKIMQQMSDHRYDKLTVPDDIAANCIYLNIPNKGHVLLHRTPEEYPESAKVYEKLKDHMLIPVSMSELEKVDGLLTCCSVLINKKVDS

`CN(C)C(=N)NCCC[C@H](N)C(=O)O` [ADMA] was tested, and the Kd was 4.27 ± 0.46 µM.
